Experiments:
EE transcriptome = assay: Microarray analysis of the EE transcriptome in successfully treated EE patients; format: in vivo, human
Description: For each patient, one distal esophageal mucosal biopsy sample was immersed in RNA, later RNA stabilization reagent (Qiagen) and stored at 4 C. for <15 days. Total RNA was extracted using the RNAeasy Mini Kit (Qiagen) according to the manufacturer's recommendations. Hybridization to DNA microarray was performed by the MicroarrayCore at Cincinnati Children's Hospital Medical Center, as previously reported Blanchard, C. et al., (2006) J. Clin. Invest. 116: 536-547. The genome wide human Affymetrix U133A plus 2.0 Genechip® was used, and gene transcript levels were determined using algorithms in the Microarray Analysis Suite and GeneSpring software (Silicon Genetics) as previously described Blanchard, C. et al., (2006) J. Clin. Invest. 116: 536-547. […] Response to therapy was defined as <1 eosinophils/high power field (hpf) and no epithelial cell hyperplasia as described herein. […] Wood, N. et al., (2003) J. Exp. Med. 197: 703-709. In patients with EE with successful anti-inflammatory intervention, IL-13 overexperssion can be normalized. […] Similarly, eotaxin-3 mRNA was normalized in FP-responder patients (P<0.01; FIG. 6B). […] Remarkably, 98% of the EE transcriptome was reversed to expression levels detected in biopsy specimens of healthy patients (FIG. 6C). […]

cadherin-26 (CDH26) = assay: Cadherin-26 expression in FP-treated EE patients, real-time PCR; format: in vivo, human; settings: P<0.05
Source text: (§1) (rev) […]; IL-13R2 (396 bp): (fwd): […] (rev) […]; IL-4Rα (335 bp): (fwd): […]
Wood, N. et al., (2003) J. Exp. Med. 197: 703-709. In patients with EE with successful anti-inflammatory intervention, IL-13 overexperssion can be normalized. […] Similarly, eotaxin-3 mRNA was normalized in FP-responder patients (P<0.01; FIG. 6B). The research next aimed to determine whether the EE transcriptome was also reversible in patients with EE successfully treated with glucocorticoids. Remarkably, 98% of the EE transcriptome was reversed to expression levels detected in biopsy specimens of healthy patients (FIG. 6C). The reversible genes include cell-specific transcripts, including eosinophil, mast cell, lymphocyte, fibroblast, and epithelial genes. In addition, genes involved in cellular recruitment and cell proliferation were also reversible. Although the biopsy specimens had no abnormal microscopic features, 12 genes were still dysregulated (FIG. 6B).

IL-13 mRNA = IL-13 mRNA in esophageal biopsy specimens of FP-treated EE patients, real-time PCR; format: in vivo, human; settings: patients with EE treated successfully with FP
Description: (§2) For each patient, one distal esophageal mucosal biopsy sample was immersed in RNA, later RNA stabilization reagent (Qiagen) and stored at 4 C. for <15 days. Total RNA was extracted using the RNAeasy Mini Kit (Qiagen) according to the manufacturer's recommendations. Hybridization to DNA microarray was performed by the MicroarrayCore at Cincinnati Children's Hospital Medical Center, as previously reported Blanchard, C. et al., (2006) J. Clin. Invest. 116: 536-547. The genome wide human Affymetrix U133A plus 2.0 Genechip® was used, and gene transcript levels were determined using algorithms in the Microarray Analysis Suite and GeneSpring software (Silicon Genetics) as previously described Blanchard, C. et al., (2006) J. Clin. Invest. 116: 536-547. […] Response to therapy was defined as <1 eosinophils/high power field (hpf) and no epithelial cell hyperplasia as described herein.
as §1
(§3) Wood, N. et al., (2003) J. Exp. Med. 197: 703-709. In patients with EE with successful anti-inflammatory intervention, IL-13 overexperssion can be normalized. […] Similarly, eotaxin-3 mRNA was normalized in FP-responder patients (P<0.01; FIG. 6B). […] Remarkably, 98% of the EE transcriptome was reversed to expression levels detected in biopsy specimens of healthy patients (FIG. 6C). […]

eotaxin-3 mRNA = assay: Eotaxin-3 mRNA in esophageal biopsy specimens of FP-treated EE patients, real-time PCR; format: in vivo, human; settings: P<0.01
Description: as §2, §1, §3

patients with EE = settings: in vivo; cited from earlier work

CCC(=O)O[C@]1(C(=O)SCF)[C@H](C)C[C@H]2[C@@H]3C[C@H](F)C4=CC(=O)C=C[C@]4(C)[C@@]3(F)[C@@H](O)C[C@@]21C [FP, S-fluoromethyl-6α,9-difluoro-11β-hydroxy-16α-methyl-3-oxo androsta-1,4-diene-17β-carbothioate, 17-propionate]
EE transcriptome reversed to expression levels of healthy patients (EE transcriptome; patients with EE successfully treated with glucocorticoids): 98%
genes still dysregulated after treatment (EE transcriptome; successfully treated EE patients, fold change filter 2): 12 genes
cadherin-26 expression in FP-treated patients with EE (cadherin-26 (CDH26)): residual upregulation
IL-13 mRNA levels in EE responders compared with untreated specimens (IL-13 mRNA): significantly (P<0.01) reduced
eotaxin-3 mRNA in FP-responder patients (eotaxin-3 mRNA): normalized
EE disease remission compared with placebo treatment (patients with EE): induces EE disease remission

Reference: patent US20120004205A1, “IL-13 INDUCED GENE SIGNATURE FOR EOSINOPHILIC ESOPHAGITIS” (Cincinnati Children's Hospital Medical Center, priority 2008, published 2012)
